# Reference: patent US20240165089A1, “METHOD FOR TREATING MYOPIA WITH VINPOCETINE” (EYE HOSPITAL, WENZHOU MEDICAL UNIVERSITY, priority 2021, published 2024)
# Several values for one entry are separate records, joined by “and”; a condition that tells them apart may be missing. Equal entries are not always repeated. Where two headings read alike, the source gives them in different places.
# Experiments:
# rabbits = settings: rabbit, in vivo, cited from earlier work
# [1] = test system: choroid of FDM guinea pigs; assay: choroidal thickness and blood flow by OCTA, FDM group; format: in vivo, guinea pig
# Procedure: The choroidal blood flow parameters and choroidal thickness were measured for the animals in the above FDM group after 1 week of continuous administration and at the end of the 2 week-administration experiment and for the animals in the LIM group at the end of the 7 day-administration experiment. Choroidal blood flow parameters and thickness were measured using a modified commercial OCTA (Spectralis HRA+OCT, OCTA, Heidelberg, Germany) which is more suitable for animal eyeballs. Before the measurement, the guinea pigs were fully anesthetized (a mixture of ketamine hydrochloride 60 mg/kg and xylazine hydrochloride 9 mg/kg, intraperitoneally injected), and then the guinea pig OCTA images were obtained, and the measurement results were quantified through a self-written program (MatLab R2017a, MathWorks). Real-time quantitative detection of choroidal blood flow and thickness in guinea pigs was achieved (Sen Zhang, Invest Ophthalmol Vis Sci. 2019 Jul. 1; 60(8):3074-3083).
# Vinpocetine is known to improve blood circulation. The inventors used the method of example 1 to detect changes of indicator signals of choroidal thickness ChT and choroidal blood flow ChBP of FDM (1 week and 2 weeks of administration) and LIM (1 week of administration) at different time points during the administration cycle.
# [2] = cited from earlier work
# [3] = test system: form deprivation myopia model of guinea pigs; assay: FDM guinea pig model, eye drops (non-invasive administration); format: in vivo; settings: for refraction difference between the eyes: FDM
# Procedure: The purpose of this experiment was to evaluate the effect of vinpocetine on myopia through non-invasive administration. All tested drugs were formulated into eye drops. […] No other active substances or excipients were added to the above eye drops.
# [4] = test system: lens induction myopia (LIM, −4D lens) guinea pig model; assay: lens induction myopia (LIM) guinea pig model, injection around the eyeball; format: in vivo
# Source text: The form deprivation and lens-induced guinea pig myopia model is a classic and recognized myopia animal model in the field. The model can be used to evaluate the efficacy and safety of drugs for treating myopia. The construction method of the model is well known to those skilled in the art. The animal modeling and administration route in this application refer to the scientific literature previously published by this research group (Sen Zhang, Invest Ophthalmol Vis Sci. 2019 Jul. 1; 60(8):3074-3083.; Miaozhen Pan, Exp Eye Res. 2021 January; 202:108332.), specifically, this application uses the following exemplary construction method of the form deprivation and lens-induced guinea pig myopia model:
# three-week-old tricolor guinea pigs (both male and female, simulating humans aged 3-26 years old) were used and raised in the experimental animal room of Wenzhou Medical University in a 12-hour light (400-500 lux)/12-hour dark environment with free access to water and food. The myopia model adopted monocular form deprivation (FD) and lens induction (LI) modeling methods. […] In the lens induction group, a −4D lens was fixed in front of the right eye of the animal, and the left eye obtained normal vision. For the above animals, the lenses were cleaned twice a day to prevent the lenses from blurring. The animals in the experimental group were administrated at 9:00-9:30 am every day. […] The administration process for each animal was controlled in about 10 seconds. Administration began on the day of modeling, and was continuous for 2 weeks for the form deprivation group and was continuous for 1 week for the lens induction group. This experiment has been reviewed by the Experimental Animal Ethics Committee of Wenzhou Medical University.
# The inventors prepared a 5 μM (i.e., 1.75 μg/mL) vinpocetine stock solution and stored at −80° C. The solvent was physiological saline. Before administration experiment, the stock solution was diluted with physiological saline to 1 μM, 0.1 μM, and 0.01 μM, respectively. During the formulation process of vinpocetine eye drops, the solubility can be increased by using conventional physical methods such as heating and stirring, or acids can also be used to adjust the PH value to increase solubility, and finally, the PH value can be adjusted to 7.31.
# 2. Lens induction plus drug injection group: • wearing a −4D lens on one eye and injecting vinpocetine (0.01 μM: 0.1 mL/day) into the eye wearing the −4D lens for 1 weeks, sample size=12; • wearing a −4D lens on one eye and injecting vinpocetine (0.1 μM: 0.1 mL/day) into the eye wearing the −4D lens for 1 weeks, sample size=12; • wearing a −4D lens on one eye and injecting vinpocetine (1.00 μM 0.1 mL/day) into the eye wearing the −4D lens for 1 weeks, sample size=13; • 3.
# All animals in the same model efficacy experiment were measured within the same time period, and the first measurement was at 3 weeks of age, that is, before drug administration. Refractions and eyeball parameters were measured for the animals in the above FDM group before the experiment, after 1 week of administration in the experiment and after 2 weeks of administration in the experiment and for the animals in the LIM group before the experiment, after 3 days of administration in the experiment and after 7 days of administration in the experiment, respectively. The refractions were measured using an eccentric infrared photoretinoscope (EIR) built in our laboratory. Each eye was measured three times and the average was taken as the final result. The axial parameters of the guinea pig's eyeballs were measured using the A-ultrasound probe in the CinescanA/B ultrasonic diagnostic instrument (QuantelMedical, Aviso, France). The ultrasonic frequency was 11 MHz. The ultrasonic propagation speeds of different refractive media of the eyeball were set as: 1557.5 m/s for the anterior chamber, 1723.3 m/s for the lens, and 1540 m/s for the vitreous body.
# rats = settings: rat, in vivo, cited from earlier work
# [5] = vinpocetine 5 μM eye drops, 2 weeks
# [6] = vinpocetine 5 μM eye drops, 2 weeks (rounded and actual value)
smiles,measurement,setting,value
CCOC(=O)C1=C[C@]2(CC)CCCN3CCc4c(n1c1ccccc41)[C@@H]32 [vinpocetine],toxicity findings,rabbits; 75 mg/kg/day,without any obvious abnormalities
same,toxicity findings,rabbits; 150 mg/kg,toxic effects of weight loss and food intake reduction
same,choroidal thickness ChT,"[1]; 1 and 2 weeks, vs solvent injection group, not statistically significant",only slightly increased
same,choroidal blood perfusion ChBP,"[1]; 1 and 2 weeks, vs solvent injection group, p=0.285",only slightly increased
same,effect on choroidal vasodilation compared with atropine,"[1]; vinpocetine 0.1 μM, 2 weeks",not as good as atropine
same,improvement of choroidal blood flow among vinpocetine concentrations,"[1]; vinpocetine 1 μM, 1 week",least effective at improving choroidal blood flow
same,solubility in water,[2],almost insoluble in water
same,solubility in 0.5% methylcellulose,[2]; room temperature,200 mg/mL
same,solubility in water,[2]; room temperature,0.0024 mg/mL
same,refraction difference between the eyes,"[3]; vinpocetine 1 μM eye drops 25 μL twice a day, 2 weeks",−4.81±1.72 D
same,refraction difference between the eyes,"[3]; vinpocetine 5 μM eye drops 25 μL twice a day, 2 weeks",−3.80±1.16 D
same,refraction inhibition rate,"[3]; vinpocetine 1 μM eye drops, 2 weeks",26.7%
same,inhibition rate for the axial length,[3]; [5],41.4%
same,inhibition rate for the vitreous chamber depth,[3]; [5],38.6%
same,refraction inhibition rate,[3]; [5],42.1%
same,axial length difference between the eyes,[3]; [6],0.09±0.04 mm and 0.0925±0.0406 mm
same,vitreous chamber depth difference between the eyes,[3]; [6],0.09±0.04 mm and 0.0869±0.0448 mm
same,effect of myopia treatment compared with the negative control group,"[4]; high-, medium- and low-concentration vinpocetine (1, 0.1, 0.01 μM), 3 days",showed the effect of myopia treatment
same,refraction difference between the experimental eye and the contralateral eye,"[4]; vinpocetine 1 μM 0.1 mL/day peribulbar injection, 3 days",−2.00±0.82 D
same,axial length difference between the experimental eye and the contralateral eye,"[4]; vinpocetine 1 μM, 3 days",0.04±0.02 mm
same,inhibition rate for the axial length,"[4]; vinpocetine 1 μM, 3 days",55.5%
same,inhibition rate for the vitreous chamber depth,"[4]; vinpocetine 1 μM, 3 days",58.8%
same,refraction inhibition rate,"[4]; vinpocetine 1 μM, 3 days",38.5%
same,vitreous chamber depth difference between the experimental eye and the contralateral eye,"[4]; vinpocetine 1 μM, 3 days",0.03±0.03 mm
same,axial length difference between the experimental eye and the contralateral eye,"[4]; vinpocetine 1 μM, 7 days",0.05±0.02 mm
same,inhibition rate for the axial length,"[4]; vinpocetine 1 μM, 7 days",53.8%
same,inhibition rate for the vitreous chamber depth,"[4]; vinpocetine 1 μM, 7 days",49.8%
same,refraction difference between the experimental eye and the contralateral eye,"[4]; vinpocetine 1 μM, 7 days",−2.61±1.17 D
same,refraction inhibition rate,"[4]; vinpocetine 1 μM, 7 days",36.3%
same,vitreous chamber depth difference between the experimental eye and the contralateral eye,"[4]; vinpocetine 1 μM, 7 days",0.05±0.02 mm
same,toxicity findings,rats; 20 mg/kg/day,no obvious abnormality
same,toxicity findings,rats; 40 mg/kg,signs of weight loss and food intake reduction
same,LD50,rats; po,approximately 500 mg/kg
